Literature values, collected in patent US20060186374A1, “Hydrophobic propellant gas mixtures for producing insulating foams” (priority 2003, published 2006).

Conditions: octanol/water, decadic logarithm

| SMILES | log PO/W |
| --- | --- |
| CC(F)(F)CC(F)(F)F [R365mfc, 1,1,1,3,3-pentafluorobutane] | 1.6 |
| COC [DME, dimethyl ether] | 0.1 |
| CC(C)C [i-butane] | 2.8 |
| FC(C(F)(F)F)C(F)(F)F [R227ea, 1,1,1,2,3,3,3-heptafluoropropane] | 2.5 |
| CCC [Propane, propane] | 2.3 |
| FC(F)CC(F)(F)F [R245fa, 1,1,1,3,3-pentafluoropropane] | 1.35 |

Continued, values first:

| log PO/W | SMILES |
| --- | --- |
| 1.06 | FCC(F)(F)F [R134a, 1,1,1,2-tetrafluoroethane] |
| 0.75 | CC(F)F [R152a, 1,1-difluoroethane] |
